Test results taken from paper PMC6426286 (2019).

Legend:
[1] = tested on: G. violaceus P1 stem-loop used for crystallization (RNA, riboswitch, 5-bromocytidine at 17) GGUGGGGACGACCCCACC; assay: X-ray crystallography, 1.54 Å; conditions: 100 mM KCl, 2 mM MgCl2 (RNA folding); ligand soaked into ligand-free crystals; 5 mM HEPES pH 7.6 (RNA folding)
[2] = tested on: GVP1 (guanidine-II riboswitch P1 stem-loop) (RNA, riboswitch) GGUGGGGACGACCCCACC; assay: ITC; conditions: 100 mM KCl, 10 mM MgCl2; 40 mM HEPES pH 7.2, 298 K; one-set-of-sites fit
[3] = tested on: GVP1P2 (complete guanidine-II riboswitch) (RNA, riboswitch) GGUGAGGACGACCUCACCCUUCGCAAAGUUUCGCGGGGACGACCCCGC; assay: ITC; conditions: 100 mM KCl, 10 mM MgCl2; 40 mM HEPES pH 7.2, 298 K; one-set-of-sites fit
[4] = tested on: GVP2 (guanidine-II riboswitch P2 stem-loop) (RNA, riboswitch) GCGGGGACGACCCCGC; assay: ITC; conditions: 100 mM KCl, 10 mM MgCl2; 40 mM HEPES pH 7.2, 298 K; one-set-of-sites fit
[5] = tested on: G. violaceus P1 stem-loop used for crystallization (RNA, riboswitch, 5-bromocytidine at 17) GGUGGGGACGACCCCACC; assay: X-ray crystallography, 1.41 Å; conditions: 100 mM KCl, 2 mM MgCl2 (RNA folding); ligand soaked into ligand-free crystals; 5 mM HEPES pH 7.6 (RNA folding)
[6] = tested on: G. violaceus P1 stem-loop used for crystallization (RNA, riboswitch, 5-bromocytidine at 17) GGUGGGGACGACCCCACC; assay: X-ray crystallography, 1.66 Å; conditions: 100 mM KCl, 2 mM MgCl2 (RNA folding); ligand soaked into ligand-free crystals; 5 mM HEPES pH 7.6 (RNA folding)

For `CCNC(=N)N`, the binding [1] was “yes”.

Molecule `N=C(N)N` has a Kd [2] of 68 ± 6 µM, a Kd [3] of 33 ± 4 µM and a Kd [4] of 66 ± 8 µM.

`N=C(N)NCCCCCNC(=N)N` was tested, and the Kd [3] was 5.1 ± 0.8 µM and the binding [5] was “yes”.

For `N=C(N)NCCCCNC(=N)N`, the binding [6] was “yes”, the Kd [2] was 4.7 ± 0.2 µM and the Kd [3] was 2.2 ± 0.5 µM. For the same molecule, the Kd [4] was 5.9 ± 4 µM.
